Laboratory results from PubChem BioAssay AID248 (DTP/NCI, 2004).
Where “and” joins values, the source holds several entries; their conditions need not be identical. Equal values may be shown once. Inconclusive results and toxic doses are left out. Cut-off read from the data, not from the text of the source: active = T/C of 150% or more; inactive = T/C below 125%.

Test system: L1210 leukemia ip in BDF1 mice, survival T/C
Assay: NCI In Vivo Anticancer Drug Screen. Data for tumor model L1210 Leukemia (intraperitoneal) in B6D2F1 (BDF1) mice
Details: endpoint: mean survival time, higher = longer survival
Outline: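 Ratio derived from survival: compound-dosed mice over vehicle-dosed mice, all bearing a transplantable tumor.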

[1] = dose: 100.0 mg/kg/injection, schedule: Q01DX009 (ip), vehicle: saline with Tween-80
[2] = dose: 100.0 mg/kg/injection, schedule: Q04DX003 (ip), vehicle: saline with Tween-80
[3] = dose: 200.0 mg/kg/injection, schedule: Q01DX009 (ip), vehicle: saline with Tween-80
[4] = dose: 200.0 mg/kg/injection, schedule: Q04DX003 (ip), vehicle: saline with Tween-80
[5] = dose: 400.0 mg/kg/injection, schedule: Q04DX003 (ip), vehicle: saline with Tween-80
[6] = dose: 50.0 mg/kg/injection, schedule: Q01DX009 (ip), vehicle: saline with Tween-80
[7] = dose: 25.0 mg/kg/injection, schedule: Q04DX003 (ip), vehicle: saline
[8] = dose: 50.0 mg/kg/injection, schedule: Q04DX003 (ip), vehicle: saline
[9] = dose: 100.0 mg/kg/injection, schedule: Q04DX003 (ip), vehicle: saline
[10] = dose: 100.0 mg/kg/injection, schedule: Q01DX009 (ip), vehicle: saline
[11] = dose: 100.0 mg/kg/injection, schedule: Q04DX002 (ip), vehicle: saline
[12] = dose: 200.0 mg/kg/injection, schedule: Q01DX009 (ip), vehicle: saline
[13] = dose: 200.0 mg/kg/injection, schedule: Q04DX002 (ip), vehicle: saline
[14] = dose: 400.0 mg/kg/injection, schedule: Q01DX009 (ip), vehicle: saline
[15] = dose: 100.0 mg/kg/injection, schedule: Q01DX009 (ip), vehicle: Klucel (hydroxypropylcellulose) (HPC)
[16] = dose: 100.0 mg/kg/injection, schedule: Q04DX003 (ip), vehicle: Klucel (hydroxypropylcellulose) (HPC)
[17] = dose: 200.0 mg/kg/injection, schedule: Q01DX009 (ip), vehicle: Klucel (hydroxypropylcellulose) (HPC)
[18] = dose: 200.0 mg/kg/injection, schedule: Q04DX003 (ip), vehicle: Klucel (hydroxypropylcellulose) (HPC)
[19] = dose: 400.0 mg/kg/injection, schedule: Q01DX009 (ip), vehicle: Klucel (hydroxypropylcellulose) (HPC)
[20] = dose: 400.0 mg/kg/injection, schedule: Q04DX003 (ip), vehicle: Klucel (hydroxypropylcellulose) (HPC)
[21] = dose: 200.0 mg/kg/injection, schedule: Q04DX003 (ip), vehicle: saline
[22] = dose: 400.0 mg/kg/injection, schedule: Q04DX003 (ip), vehicle: saline

Measured: T/C

COc1ccc(CN(N=O)c2ccc(C(=O)O)cc2)cc1
inactive: [1] 91 % of control | [2] 110 % of control | [3] 90 % of control | [4] 104 % of control | [5] 105 % of control

CC(=O)Nc1ccc(N2CCN=N2)cc1
inactive: dose: 25.0 mg/kg/injection, schedule: Q01DX009 (ip), vehicle: saline with Tween-80 103 % of control | [6] 109 % of control | [2] 97 % of control

CCOC(=O)N1CCN(Cn2cc3c4c(cccc42)C2CC(C(=O)NC(C)C)CN(C)C2C3)CC1 (configuration not stated)
inactive: dose: 6.25 mg/kg/injection, schedule: Q04DX003 (ip), vehicle: saline 88 % of control | dose: 12.5 mg/kg/injection, schedule: Q04DX003 (ip), vehicle: saline 97 % of control | [7] 100 % of control | [8] 94 % of control | [9] 97 % of control

CSC(=S)NNC(=O)c1ccc([N+](=O)[O-])cc1
inactive: dose: 6.25 mg/kg/injection, schedule: Q04DX003 (ip), vehicle: saline sonified 96 % of control | dose: 12.5 mg/kg/injection, schedule: Q04DX003 (ip), vehicle: saline sonified 98 % of control

O=C(Cc1ccccc1)NCCO
inactive: dose: 50.0 mg/kg/injection, schedule: Q01DX009 (ip), vehicle: saline 103 % of control | [10] 98 % of control | [11] 109 % of control | [12] 101 % of control | [13] 109 % of control | [14] 97 % of control

C=CCC(C(C)=O)C(=O)OCC (configuration not stated)
inactive: [15] 100 % of control | [16] 93 % of control | [17] 96 % of control | [18] 104 % of control | [19] 96 % of control | [20] 97 % of control

CC(=O)C(C)(CCC#N)CCC#N
inactive: [6] 105 % of control | [1] 91 % of control | [2] 108 % of control | [4] 104 % of control

O=C(COc1ccc(Cl)c(Cl)c1)NCc1ccc[n+](CC(=O)Nc2ccc(S(=O)(=O)F)cc2)c1
inactive: [10] 100 % of control | [12] 94 % of control

CCCCCCCCC(=O)N(CCCC)CCCC
inactive: dose: 100.0 mg/kg/injection, schedule: Q01DX009 (ip), vehicle: carboxymethylcellulose (CMC) 97 % of control and 100 % of control | dose: 100.0 mg/kg/injection, schedule: Q04DX002 (ip), vehicle: carboxymethylcellulose (CMC) 94 % of control | dose: 200.0 mg/kg/injection, schedule: Q01DX009 (ip), vehicle: carboxymethylcellulose (CMC) 93 % of control and 100 % of control | dose: 200.0 mg/kg/injection, schedule: Q04DX002 (ip), vehicle: carboxymethylcellulose (CMC) 93 % of control | dose: 400.0 mg/kg/injection, schedule: Q01DX009 (ip), vehicle: carboxymethylcellulose (CMC) 89 % of control | dose: 400.0 mg/kg/injection, schedule: Q04DX002 (ip), vehicle: carboxymethylcellulose (CMC) 93 % of control

O=C1C(C2(O)C(=O)Nc3ccccc32)CCCC1C1(O)C(=O)Nc2ccccc21 (configuration not stated)
inactive: dose: 50.0 mg/kg/injection, schedule: Q01DX009 (ip), vehicle: Klucel (hydroxypropylcellulose) (HPC) 97 % of control | [15] 104 % of control | [17] 101 % of control

O=C1NC(=O)C(F)(F)C(O)N1 (configuration not stated)
inactive: dose: 45.0 mg/kg/injection, schedule: Q01DX009 (ip), vehicle: saline 117 % of control | dose: 65.0 mg/kg/injection, schedule: Q01DX009 (ip), vehicle: saline 94 % of control | [10] 92 % of control | [9] 108 % of control | dose: 150.0 mg/kg/injection, schedule: Q01DX009 (ip), vehicle: saline 97 % of control | [21] 117 % of control | dose: 220.0 mg/kg/injection, schedule: Q01DX009 (ip), vehicle: saline 90 % of control | [22] 120 % of control

CCN(CC)CCCC(C)Nc1cc(N)nc2nccnc12 (configuration not stated)
inactive: [7] 102 % of control | [8] 111 % of control | [9] 107 % of control

CCOP(=O)(OCC)OC(=C(F)F)P(=O)(OCC)OCC
inactive: [9] 98 % of control | [21] 101 % of control | [22] 96 % of control

CN(C)CCCN1CCC2(CC1)NC(=O)NC2=O
inactive: [11] 103 % of control | [13] 103 % of control | dose: 400.0 mg/kg/injection, schedule: Q04DX002 (ip), vehicle: saline 103 % of control

O=[N+]([O-])c1cccc(S(=O)(=O)OCC2CO2)c1 (configuration not stated)
inactive: [15] 98 % of control | [17] 104 % of control

CCN1/C(=C/C=C/c2oc3ccccc3[n+]2CC)Oc2ccccc21
inactive: dose: 0.05 mg/kg/injection, schedule: Q04DX003 (ip), vehicle: Klucel (hydroxypropylcellulose) (HPC) 102 % of control | dose: 0.1 mg/kg/injection, schedule: Q04DX003 (ip), vehicle: Klucel (hydroxypropylcellulose) (HPC) 100 % of control | dose: 0.2 mg/kg/injection, schedule: Q01DX009 (ip), vehicle: saline 104 % of control | dose: 0.2 mg/kg/injection, schedule: Q04DX003 (ip), vehicle: Klucel (hydroxypropylcellulose) (HPC) 98 % of control | dose: 0.2 mg/kg/injection, schedule: Q04DX003 (ip), vehicle: saline 112 % of control | dose: 0.4 mg/kg/injection, schedule: Q01DX009 (ip), vehicle: saline 109 % of control | dose: 0.4 mg/kg/injection, schedule: Q04DX003 (ip), vehicle: Klucel (hydroxypropylcellulose) (HPC) 104 % of control | dose: 0.4 mg/kg/injection, schedule: Q04DX003 (ip), vehicle: saline 94 % of control | dose: 0.5 mg/kg/injection, schedule: Q01DX001 (ip), vehicle: saline 108 % of control | dose: 0.8 mg/kg/injection, schedule: Q01DX009 (ip), vehicle: saline 114 % of control | dose: 0.8 mg/kg/injection, schedule: Q04DX003 (ip), vehicle: saline 100 % of control | dose: 1.0 mg/kg/injection, schedule: Q01DX001 (ip), vehicle: saline 100 % of control | dose: 1.6 mg/kg/injection, schedule: Q04DX003 (ip), vehicle: saline 107 % of control | dose: 37.5 micrograms/kg/injection, schedule: Q01DX009 (ip), vehicle: Klucel (hydroxypropylcellulose) (HPC) 108 % of control | dose: 75.0 micrograms/kg/injection, schedule: Q01DX009 (ip), vehicle: Klucel (hydroxypropylcellulose) (HPC) 98 % of control | dose: 150.0 micrograms/kg/injection, schedule: Q01DX009 (ip), vehicle: Klucel (hydroxypropylcellulose) (HPC) 107 % of control | dose: 300.0 micrograms/kg/injection, schedule: Q01DX009 (ip), vehicle: Klucel (hydroxypropylcellulose) (HPC) 113 % of control

CC(C)CC(=O)Nc1ccc(S(=O)(=O)Cl)cc1
inactive: [1] 106 % of control | [2] 92 % of control | [3] 101 % of control | [4] 86 % of control | dose: 400.0 mg/kg/injection, schedule: Q01DX009 (ip), vehicle: saline with Tween-80 94 % of control | [5] 89 % of control

Cc1ncc(C(=O)O)n1C(C)c1ccccc1 (configuration not stated)
inactive: dose: 100.0 mg/kg/injection, schedule: Q01DX001 (ip), vehicle: Klucel (hydroxypropylcellulose) (HPC) 100 % of control | [15] 94 % of control and 104 % of control | dose: 100.0 mg/kg/injection, schedule: Q04DX002 (ip), vehicle: Klucel (hydroxypropylcellulose) (HPC) 94 % of control and 100 % of control and 102 % of control | [16] 93 % of control | dose: 200.0 mg/kg/injection, schedule: Q01DX001 (ip), vehicle: Klucel (hydroxypropylcellulose) (HPC) 109 % of control | [17] 100 % of control | dose: 200.0 mg/kg/injection, schedule: Q04DX002 (ip), vehicle: Klucel (hydroxypropylcellulose) (HPC) 94 % of control and 99 % of control and 100 % of control | [18] 95 % of control | dose: 400.0 mg/kg/injection, schedule: Q01DX001 (ip), vehicle: Klucel (hydroxypropylcellulose) (HPC) 96 % of control | [19] 97 % of control and 100 % of control | dose: 400.0 mg/kg/injection, schedule: Q04DX002 (ip), vehicle: Klucel (hydroxypropylcellulose) (HPC) 98 % of control and 103 % of control and 104 % of control | [20] 96 % of control

O=C(Nc1ccc([N+](=O)[O-])cc1Cl)N(CC(O)c1ccccc1)C1CCCCC1 (configuration not stated)
inactive: [10] 90 % of control | [9] 108 % of control | [12] 95 % of control | [21] 102 % of control | [14] 96 % of control | [22] 100 % of control
